Experimental data reported in patent publication US20240294522A1 (Lead Discovery Center GmbH, priority 2021, published 2024).

Columns and labels:
GRK2 = target: T1, GRK2 (Homo sapiens, UniProt P25098); experiment: Lance Kinase Activity Assay, GRK2; conditions: biochemical Lance kinase activity assay; class symbols A-F; read-out: GRK2 LANCE Assay (IC-50)
T1 construct: purchased Thermo Scientific
T1 sequence (P25098 1-689): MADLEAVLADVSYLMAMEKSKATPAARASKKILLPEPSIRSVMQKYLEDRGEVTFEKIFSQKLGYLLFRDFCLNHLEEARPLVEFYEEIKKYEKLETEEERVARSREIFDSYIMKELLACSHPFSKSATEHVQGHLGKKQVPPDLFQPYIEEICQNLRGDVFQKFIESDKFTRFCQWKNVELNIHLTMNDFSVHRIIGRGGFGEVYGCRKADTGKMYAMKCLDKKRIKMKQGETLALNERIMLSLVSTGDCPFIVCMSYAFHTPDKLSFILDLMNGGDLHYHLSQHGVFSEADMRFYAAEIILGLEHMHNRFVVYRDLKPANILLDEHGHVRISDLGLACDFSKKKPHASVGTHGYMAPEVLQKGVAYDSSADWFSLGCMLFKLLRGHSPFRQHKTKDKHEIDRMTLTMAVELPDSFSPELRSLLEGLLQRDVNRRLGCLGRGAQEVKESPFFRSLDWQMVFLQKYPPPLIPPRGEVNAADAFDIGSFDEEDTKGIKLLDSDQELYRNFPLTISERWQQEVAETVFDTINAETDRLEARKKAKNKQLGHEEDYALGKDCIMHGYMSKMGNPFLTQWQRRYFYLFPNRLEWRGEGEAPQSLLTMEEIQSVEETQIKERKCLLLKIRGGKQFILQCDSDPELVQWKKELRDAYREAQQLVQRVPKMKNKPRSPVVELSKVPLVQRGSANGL
Experimental: (§1) This protocol describes how the Lance Kinase Activity Assay was performed to determine IC50 values of compounds of general formula (I) against GRK5 and GRK2.
(§2) The principle behind this enzymatic assay is based upon the phosphorylation of the Ulight-peptide substrate. It is detected by using a specific EU-labeled anti-phospho peptide antibody. The binding of the Eu labeled anti-phospho peptide antibody to the phosphorylated ULight labeled peptide gives rise to a FRET-signal. Binding of an inhibitor to the kinase prevents phosphorylation of the Ulight-substrate, resulting in a loss of FRET. In tables 2 and 3 the relevant information for these two LANCE assays is summarized.
(§3) For every sample, 2 μl of assay buffer (50 mM HEPES pH 7,5, 10 mM MgCL2, 1 mM EGTA 0,01% Tween 20, 1% DMSO, 2 mM DTT) were transferred into a suitable assay plate (e.g. Corning #3673). Compounds were added in a concentration range from 10 μM to 0.0025 μM using an acoustic dispenser (Echo520 from Labcycte, San Jose, USA) equipped with Echo Dose Response software. After that 6 μl of kinase-substrate mix was added. Reaction was started by addition of 2 μl ATP working solution and mixed using a Bioshake 5000 microplate shaker (Q Instruments, Jena, Germany).
(§4) After 1 h incubation at room temperature the reaction was stopped with 10 μl detection mix containing the Eu-labeled phosphospecific antibody and 10 mM EDTA. After a second incubation period of 1 h at room temperature the FRET signal was measured at 340 nm excitation, 665 nm and 615 nm emission (for the ULight-substrate and Eu-AB, respectively) with an Envision microplate reader (Perkin Elmer, Waltham, MA, USA) with 50 μs delay and 300 μs integration time. IC50 values were determined from the sigmoidal dose response curves with the software Quattro Workflow (Quattro GmbH, Munich, Germany).
(§5) Inhibition is indicated as IC50 [nM] (“−”=not measured). Compounds having an activity designated as “A” provided an IC50≤50 nM; compounds having an activity designated as “B” provided an 50 nM<IC50≤100 nM; compounds having an activity designated as “C” provided an 100 nM<IC50≤500 nM; compounds having an activity designated as “D” provided an 500 nM<IC50≤1000 nM; compounds having an activity designated as “E” provided an 1000 nM<IC50≤10000 nM; and compounds having an activity designated as “F” provided an IC50>10000 nM.

GRK5 = target: T2, GRK5 (Homo sapiens, UniProt P34947); experiment: Lance Kinase Activity Assay, GRK5; conditions: biochemical Lance kinase activity assay; class symbols A-F; read-out: GRK5 LANCE Assay (IC-50)
T2 construct: purchased Thermo Scientific
T2 sequence (P34947 whole entry): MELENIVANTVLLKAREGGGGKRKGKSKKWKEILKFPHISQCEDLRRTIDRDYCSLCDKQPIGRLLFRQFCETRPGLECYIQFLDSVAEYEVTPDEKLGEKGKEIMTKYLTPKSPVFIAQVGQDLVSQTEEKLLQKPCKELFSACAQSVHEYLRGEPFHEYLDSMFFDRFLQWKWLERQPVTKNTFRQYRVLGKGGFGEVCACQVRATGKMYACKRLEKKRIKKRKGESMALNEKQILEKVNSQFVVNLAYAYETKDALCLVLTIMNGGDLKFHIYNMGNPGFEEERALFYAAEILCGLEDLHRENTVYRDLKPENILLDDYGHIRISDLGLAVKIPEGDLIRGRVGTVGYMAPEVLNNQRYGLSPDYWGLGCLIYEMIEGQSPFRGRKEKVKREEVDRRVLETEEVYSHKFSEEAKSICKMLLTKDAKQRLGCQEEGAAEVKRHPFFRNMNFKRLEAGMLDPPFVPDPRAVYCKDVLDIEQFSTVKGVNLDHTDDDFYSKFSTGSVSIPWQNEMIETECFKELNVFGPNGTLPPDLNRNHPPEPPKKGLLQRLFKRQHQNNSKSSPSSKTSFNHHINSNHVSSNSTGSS
Experimental: as §1, §2, §3, §4, §5

Row | SMILES | IC50 (GRK2) | IC50 (GRK5)
1 | COc1cccc([C@@H](C)NC(=O)/C(C#N)=C/c2c[nH]c3ncccc23)c1 [Example 33, (R,E)-2-cyano-N-(1-(3-methoxyphenyl)ethyl)-3-(1H-pyrrolo[2,3-b]pyridin-3-yl)acrylamide] | ≤ 0.05 µM | ≤ 0.05 µM
2 | CC(=O)Nc1cccc(CNC(=O)/C(C#N)=C/c2c[nH]c3ncccc23)c1 [Example 34, (E)-N-(3-acetamidobenzyl)-2-cyano-3-(1H-pyrrolo[2,3-b]pyridin-3-yl)acrylamide] | ≤ 0.05 µM | 0.1 to 0.5 µM
3 | N#C/C(=C\c1c[nH]c2ncccc12)C(=O)NCc1ccccc1C#N [Example 35, (E)-2-cyano-N-(2-cyanobenzyl)-3-(1H-pyrrolo[2,3-b]pyridin-3-yl)acrylamide] | 1 to 10 µM | 0.1 to 0.5 µM
4 | COc1ccc(CNC(=O)/C(C#N)=C/c2c[nH]c3ncccc23)cc1S(N)(=O)=O [Example 36, (E)-2-cyano-N-(4-methoxy-3-sulfamoylbenzyl)-3-(1H-pyrrolo[2,3-b]pyridin-3-yl)acrylamide] | 1 to 10 µM | 0.1 to 0.5 µM
5 | N#C/C(=C\c1c[nH]c2ncccc12)C(=O)NCc1ccccc1CN1CCOCC1 [Example 37, (E)-2-cyano-N-(2-(morpholinomethyl)benzyl)-3-(1H-pyrrolo[2,3-b]pyridin-3-yl)acrylamide] | > 10 µM | 1 to 10 µM
6 | CC(NC(=O)/C(C#N)=C/c1c[nH]c2ncccc12)c1ccccc1-n1cccn1 (centres unmarked) [Example 38, (E)-N-(1-(2-(1H-pyrazol-1-yl)phenyl)ethyl)-2-cyano-3-(1H-pyrrolo[2,3-b]pyridin-3-yl)acrylamide] | 1 to 10 µM | 1 to 10 µM
7 | CS(=O)(=O)c1ccccc1CNC(=O)/C(C#N)=C/c1c[nH]c2ncccc12 [Example 39, (E)-2-cyano-N-(2-(methylsulfonyl)benzyl)-3-(1H-pyrrolo[2,3-b]pyridin-3-yl)acrylamide] | 1 to 10 µM | 0.1 to 0.5 µM
8 | N#C/C(=C\c1c[nH]c2ncccc12)C(=O)N[C@H](CCO)c1ccccc1 [Example 40, (R,E)-2-cyano-N-(3-hydroxy-1-phenylpropyl)-3-(1H-pyrrolo[2,3-b]pyridin-3-yl)acrylamide] | 0.1 to 0.5 µM | 0.1 to 0.5 µM
9 | N#C/C(=C\c1c[nH]c2ncccc12)C(=O)NCc1ccccc1S(=O)(=O)N1CCOCC1 [Example 41, (E)-2-cyano-N-(2-(morpholinosulfonyl)benzyl)-3-(1H-pyrrolo[2,3-b]pyridin-3-yl)acrylamide] | 1 to 10 µM | 0.1 to 0.5 µM
10 | CS(=O)(=O)Nc1ccccc1CNC(=O)/C(C#N)=C/c1c[nH]c2ncccc12 [Example 42, (E)-2-cyano-N-(2-(methylsulfonamido)benzyl)-3-(1H-pyrrolo[2,3-b]pyridin-3-yl)acrylamide] | 1 to 10 µM | 0.5 to 1 µM
11 | CNS(=O)(=O)c1ccccc1CNC(=O)/C(C#N)=C/c1c[nH]c2ncccc12 [Example 43, (E)-2-cyano-N-(2-(N-methylsulfamoyl)benzyl)-3-(1H-pyrrolo[2,3-b]pyridin-3-yl)acrylamide] | 1 to 10 µM | 0.1 to 0.5 µM
12 | N#C/C(=C\c1c[nH]c2ncccc12)C(=O)NCc1ccccc1CN1CCCC1=O [Example 44, (E)-2-cyano-N-(2-((2-oxopyrrolidin-1-yl)methyl)benzyl)-3-(1H-pyrrolo[2,3-b]pyridin-3-yl)acrylamide] | 1 to 10 µM | 1 to 10 µM
13 | N#C/C(=C\c1c[nH]c2ncccc12)C(=O)NCc1cccc2[nH]ncc12 [Example 45, (E)-N-((1H-indazol-4-yl)methyl)-2-cyano-3-(1H-pyrrolo[2,3-b]pyridin-3-yl)acrylamide] | 1 to 10 µM | 0.5 to 1 µM
14 | N#C/C(=C\c1c[nH]c2ncccc12)C(=O)NCc1cccc(N2CCOCC2)c1 [Example 46, (E)-2-cyano-N-(3-morpholinobenzyl)-3-(1H-pyrrolo[2,3-b]pyridin-3-yl)acrylamide] | > 10 µM | 1 to 10 µM
15 | N#C/C(=C\c1c[nH]c2ncccc12)C(=O)NC(c1cccc(Br)c1)C(F)(F)F (centres unmarked) [Example 47, (E)-N-(1-(3-bromophenyl)-2,2,2-trifluoroethyl)-2-cyano-3-(1H-pyrrolo[2,3-b]pyridin-3-yl)acrylamide] | > 10 µM | 1 to 10 µM
16 | CN(C)CCC(NC(=O)/C(C#N)=C/c1c[nH]c2ncccc12)c1ccccc1 (centres unmarked) [Example 48, (E)-2-cyano-N-(3-(dimethylamino)-1-phenylpropyl)-3-(1H-pyrrolo[2,3-b]pyridin-3-yl)acrylamide] | 0.05 to 0.1 µM | ≤ 0.05 µM
17 | N#C/C(=C\c1c[nH]c2ncccc12)C(=O)NC(C#N)c1ccccc1 (centres unmarked) [Example 49, (E)-2-cyano-N-(cyano(phenyl)methyl)-3-(1H-pyrrolo[2,3-b]pyridin-3-yl)acrylamide] | > 10 µM | 1 to 10 µM
18 | CN(C)CC(NC(=O)/C(C#N)=C/c1c[nH]c2ncccc12)c1ccccc1 (centres unmarked) [Example 50, (E)-2-cyano-N-(2-(dimethylamino)-1-phenylethyl)-3-(1H-pyrrolo[2,3-b]pyridin-3-yl)acrylamide] | 0.1 to 0.5 µM | 0.1 to 0.5 µM
19 | COc1ccc(C(CCN(C)C)NC(=O)/C(C#N)=C/c2c[nH]c3ncccc23)cc1 (centres unmarked) [Example 51, (E)-2-cyano-N-(3-(dimethylamino)-1-(4-methoxyphenyl)propyl)-3-(1H-pyrrolo[2,3-b]pyridin-3-yl)acrylamide] | 0.5 to 1 µM | ≤ 0.05 µM
20 | CCN(CC)CCC(NC(=O)/C(C#N)=C/c1c[nH]c2ncccc12)c1ccccc1 (centres unmarked) [Example 52, (E)-2-cyano-N-(3-(diethylamino)-1-phenylpropyl)-3-(1H-pyrrolo[2,3-b]pyridin-3-yl)acrylamide] | 0.1 to 0.5 µM | 0.1 to 0.5 µM
21 | COc1ccc([C@@H](CO)NC(=O)/C=C/c2c[nH]c3ncc(C)cc23)cc1OC [Example 53, (S,E)-N-(1-(3,4-dimethoxyphenyl)-2-hydroxyethyl)-3-(5-methyl-1H-pyrrolo[2,3-b]pyridin-3-yl)acrylamide] | 1 to 10 µM | ≤ 0.05 µM
22 | COc1cc([C@@H](C)NC(=O)/C=C/c2c[nH]c3ncc(C)cc23)ccc1F [Example 54, (R,E)-N-(1-(4-fluoro-3-methoxyphenyl)ethyl)-3-(5-methyl-1H-pyrrolo[2,3-b]pyridin-3-yl)acrylamide] | ≤ 0.05 µM | ≤ 0.05 µM
23 | COc1ccc([C@@H](C)NC(=O)/C=C/c2c[nH]c3ncc(OC4CCS(=O)(=O)CC4)cc23)cc1OC [Example 55, (R,E)-N-(1-(3,4-dimethoxyphenyl)ethyl)-3-(5-((1,1-dioxidotetrahydro-2H-thiopyran-4-yl)oxy)-1H-pyrrolo[2,3-b]pyridin-3-yl)acrylamide] | > 10 µM | ≤ 0.05 µM
24 | COc1ccc([C@@H](C)NC(=O)/C=C/c2c[nH]c3ncc(OCCN(C)C)cc23)cc1OC [Example 56, (R,E)-N-(1-(3,4-dimethoxyphenyl)ethyl)-3-(5-(2-(dimethylamino)ethoxy)-1H-pyrrolo[2,3-b]pyridin-3-yl)acrylamide] | > 10 µM | 0.05 to 0.1 µM
25 | N#C/C(=C\c1c[nH]c2ncccc12)C(=O)NCc1ccc(F)cc1 [Example 57, (E)-2-cyano-N-(4-fluorobenzyl)-3-(1H-pyrrolo[2,3-b]pyridin-3-yl)acrylamide] | 1 to 10 µM | 0.1 to 0.5 µM
